{"source": "paper PMC6062912", "about": "“The Evolutionary Conserved γ-Core Motif Influences the Anti-Candida Activity of the Penicillium chrysogenum Antifungal Protein PAF” (Frontiers in Microbiology, 2018)", "assay_type_in_all_cases": "cell-based, Candida albicans", "key": {"C. albicans [1]": {"test_system": "C. albicans", "conditions": "2 h", "experimental": "Fungistatic or fungicidal activities were determined by incubating C. albicans (10^4 cells mL^-1) in 0.05× PDB with proteins and peptides at 1× MIC and 2× MIC of at 30°C under continuous shaking (800 rpm) in a Thermomixer Comfort (Eppendorf). At defined time points, aliquots were taken and appropriate dilutions were plated on YPD agar in duplicates to promote growth of viable cells. Agar plates were incubated at 37°C for 24 h to count colony forming units (cfu) ([Huber et al., 2018]).\nThe determination of the MIC concentration is a well-established, reliable method to elucidate the growth reducing effect of an antifungal compound. […] To gain deeper insight into the antifungal mechanism of the generated protein and peptide variants, we compared them first for their fungicidal potential. In liquid culture C. albicans was exposed to 1× MIC and 2× MIC concentrations of each protein and peptide. After certain time points aliquots were taken and appropriate dilutions were spread on agar plates to allow colony formation of viable cells. The cfu were counted and compared to the untreated control, which was set to be 100%. […] The candidacidal effects were aggravated with higher protein concentrations."}, "C. albicans [2]": {"test_system": "C. albicans", "experiment": "ROS production, DCFH-DA fluorometric assay", "conditions": "for ROS signal higher compared to Pγ: 60 min", "experimental": "For the detection of ROS generation in C. albicans a dichloro-dihydro-fluorescein diacetate (DCFH-DA, Sigma-Aldrich)-based fluorometric assay was applied, adapted from [Han et al. (2016)]. Cells from an overnight culture of C. albicans, grown on YPD agar, were suspended in 0.05× PDB (Sigma-Aldrich) and the cell number was adjusted to 10^7 cells mL^-1. DCFH-DA stock solution (100 mM in DMSO) was added to the cell suspension to give a final concentration of 100 μM. This cell suspension was pre-incubated for 30 min at 30°C protected from light. Serial dilutions of the test compounds were prepared in 0.05× PDB (Sigma-Aldrich) in 96-well microtiter plates (Nunclon Delta, Thermo Fisher Scientific) in a volume of 100 μL per well. H2O2 served as a positive control for ROS induction. After pre-incubation, the DCFH-DA loaded cells were added to the test compounds (100 μL per well) to give a final volume of 200 μL in each well and the 96-well plate was placed in a multi-mode microplate reader (FLUOstar Omega, BMG Labtech), set to 30°C incubation temperature. The fluorescence signal was recorded every 5 min over a time course of 4 h at excitation and emission wavelengths of 485 and 520 nm, respectively. Measurements were prepared in duplicates and assays were performed at least three times.\nSince ROS production is an early marker for programmed cell death, we were also interested whether the investigated AMPs induce ROS in C. albicans. Therefore, C. albicans cells were loaded with DCFH-DA, which is converted intracellularly to the highly fluorescent DCF when oxidized in the presence of ROS ([Chen et al., 2010]). During exposure of the cells to 0–20 μM AMPs the DCF signal intensities were recorded in RFU every 5 min over a time-course of 4 h. The background RFU of 6,757 ± 117 was detected in C. albicans cells that were not exposed to AMPs, but loaded with DCFH-DA, diluted in 0.05× PDB (0.1% DMSO final concentration). The RFU value remained constant over the time of measurement. For all AMPs, we detected a time- and dose-dependent increase of ROS (Supplementary Figure S9) and ROS production was prevented by the addition of 1 mM of the antioxidant ascorbic acid to the highest concentration (20 μM) of each AMP (Supplementary Figure S10)."}, "C. albicans [3]": {"test_system": "C. albicans", "conditions": "24 h", "experimental": "Fungal strains used in this study are listed in Supplementary Table S1 and composition of growth media is given in Supplementary Table S2. All P. chrysogenum shaking cultures were inoculated with 2 × 10^8 conidia, in 200 mL defined minimal medium (PcMM) for protein expression or complete medium (CM) before transformation, and grown at 25°C as described ([Sonderegger et al., 2016]). For conidial suspension generation from surface cultures, P. chrysogenum was grown on PcMM agar at 25°C. C. albicans was used as PAF-sensitive model organism and was cultivated on yeast extract peptone dextrose (YPD) agar at 37°C. For growth inhibition and susceptibility assays, C. albicans was grown in 20-fold diluted potato dextrose broth (PDB, Sigma-Aldrich) at 30°C, pH 5.5 ([Huber et al., 2018]).\nThe MIC of all protein and peptide variants was determined on C. albicans with broth microdilution assays in 96-well microtiter plates (Nunclon Delta, Thermo Fisher Scientific). From a fresh C. albicans overnight culture on YPD agar, cells were harvested with an inoculation loop and suspended in 0.05× PDB (Sigma-Aldrich) ([Arendrup et al., 2016]). The cell number was determined with a counting chamber (Bürker) and the cell number was adjusted to 10^4 mL^-1. In each well, 10^3 cells were incubated with increasing concentrations of antifungal proteins or peptides in a final volume of 200 μL 0.05× PDB. The plates were incubated for 24 h at 30°C before the growth was determined by measuring the optical density (OD620nm) with a multi-mode microplate reader (FLUOstar Omega, BMG Labtech). The MIC was defined as the protein concentration that inhibited growth by ≥90% compared to the untreated control, which was referred as 100% growth."}}, "note": "Where two headings read alike, the source gives them in different places. Residues, ends and D or L forms follow the SMILES beside them."}
{"smiles": "CC(=O)N[C@@H](CCCCN)C(=O)N[C@@H](Cc1ccc(O)cc1)C(=O)N[C@H](C(=O)NCC(=O)N[C@@H](CCCCN)C(=O)N[C@@H](CS)C(=O)N[C@@H](CCCCN)C(=O)N[C@H](C(=O)N[C@@H](CCCCN)C(=O)N[C@@H](CCCCN)C(=O)N[C@@H](CC(N)=O)C(=O)N[C@@H](CCCCN)C(=O)N[C@@H](CS)C(=O)N[C@@H](CCCCN)C(N)=O)[C@@H](C)O)[C@@H](C)O", "note": "[Pγ^opt] (Ac-KYTGKCKTKKNKCK-NH2)", "values": [{"measurement": "Candida cells killed (cfu vs untreated control)", "setting": "C. albicans [1]; 1", "value": "29 ± 10", "unit": "%"}, {"measurement": "Candida cells killed (cfu vs untreated control)", "setting": "C. albicans [1]; 2", "value": "88 ± 8", "unit": "%"}, {"measurement": "ROS signal above the background", "setting": "C. albicans [2]; 1.3 μM, 4 h", "value": 36, "unit": "%"}, {"measurement": "fluorescence signal above the background (ROS)", "setting": "C. albicans [2]; 20 μM, 30 min", "value": 31, "unit": "%"}, {"measurement": "ROS signal higher compared to Pγ", "setting": "C. albicans [2]; 20 μM", "value": "+85%"}, {"measurement": "ROS signal above the level induced by Pγ", "setting": "C. albicans [2]; 20 μM, 4 h", "value": 446, "unit": "%"}]}
{"smiles": "CC(=O)N[C@@H](CCCCN)C(=O)N[C@@H](Cc1ccc(O)cc1)C(=O)N[C@H](C(=O)NCC(=O)N[C@@H](CCCCN)C(=O)N[C@@H](CS)C(=O)N[C@@H](Cc1ccc(O)cc1)C(=O)N[C@@H](CCCCN)C(=O)N[C@@H](CCCCN)C(=O)N[C@@H](CCCCN)C(=O)N[C@@H](CC(N)=O)C(=O)N[C@@H](CCC(=O)O)C(=O)N[C@@H](CS)C(=O)N[C@@H](CCCCN)C(N)=O)[C@@H](C)O", "note": "[Pγ^var] (Ac-KYTGKCYKKKNECK-NH2)", "values": [{"measurement": "MIC", "setting": "C. albicans [3]", "value": 2.5, "unit": "µM"}, {"measurement": "Candida cells killed (cfu vs untreated control)", "setting": "C. albicans [1]; 1× MIC, 0.05× PDB, 30°C, mean ± SD", "value": "no killing effects"}, {"measurement": "Candida cells killed (cfu vs untreated control)", "setting": "C. albicans [1]; 2", "value": "50 ± 28", "unit": "%"}, {"measurement": "ROS signal higher compared to Pγ", "setting": "C. albicans [2]; 20 μM", "value": "+50%"}, {"measurement": "ROS signal above the level induced by Pγ", "setting": "C. albicans [2]; 20 μM, 4 h", "value": 146, "unit": "%"}]}
